In publication PMC6389993, “Quercetin and its metabolite isorhamnetin promote glucose uptake through different signalling pathways in myotubes” (Scientific Reports, 2019):
Where two headings read alike, the source gives them in different places.

Columns and labels:
[1] = Plasma concentrations of quercetin and isorhamnetin in mice after oral EMIQ (HPLC); type: in vivo; conditions: male, ICR, mouse, HPLC without deconjugation, read-out: Concentration in plasma, Aglycone form
Description: All animal experiments were performed according to the guidelines for animal experiments at Kobe University Animal Experimentation Regulation and approved by the Institutional Animal Care and Use Committed of Kobe University (Permission 29-05-02). Male ICR mice (5 weeks old, n = 20) were obtained from Japan SLC (Shizuoka, Japan) and maintained at constant temperature (23 ± 2 °C) with a 12 h light-dark cycle (lights on at 8:00 am). Mice were subsequently randomly divided into four groups of five each, and acclimatized for 1 week with free access to tap water and a laboratory-purified diet (3.850 kcal/g diet) consisting of 76% carbohydrate, 15% protein and 9% fat) (Research Diets, Tokyo, Japan). For analysis of concentrations of quercetin and isorhamnetin in the plasma and GLUT4 translocation in the muscle, mice were orally administrated EMIQ at 10, 100, or 1000 mg/kg body weight, or water as a vehicle control after 18 h fasting. The mice were sacrificed 90 min after the administration under anesthesia using sodium pentobarbital and seroflurane, and euthanized by exsanguination from cardiac puncture. Plasma and soleus muscle were collected, and kept at -80 °C until use.
To determine the levels of quercetin and isorhamnetin after administration of EMIQ, the obtained plasma were analyzed using HPLC (UV 370 nm) with or without deconjugation treatment using glucuronidase/sulfatase[16]. Briefly, an aliquot of 250 μl of plasma was mixed with 50 μl of 20% (w/v) ascorbic acid and incubated with 125 μl of 75 mM potassium phosphate buffer (pH 6.8) with or without 500 U/sample β-glucronidase and 125 μl of 200 mM sodium acetate buffer (pH 5.0) with or without 10 U/sample sulfatase for 2 h at 37 °C after adding 2 μl of 1 mM nobiletin as an internal standard. To separate quercetin and isorhamnetin, mixture was applied on a Sep-Pak C18 1 cc Vac Cartridge and eluted with 2 ml 95% (v/v) methanol. After eluate was dried by evaporation, dried material was dissolved in 50 μl of 50% (v/v) methanol and applied to HPLC. HPLC was performed using a SHIMADZU LabSolutions system (SHIMADZU, Kyoto, Japan) with SPD-M20A diode array detector. HPLC separation was done with a gradient system using 0.02% aqueous phosphoric acid as mobile phase A and acetonitrile as mobile phase B with a Cadenza CL-C18 column (φ 4.6 mm × 250 mm, Kyoto, Japan) at a flow rate of 1.0 ml/min. The gradient program was 0–13 min, 20% B, 13–33 min, 50–80% B, 33–43 min, 100% B, 43–60 min, 20% B.

STAT1 = assay: Phosphorylation of STAT1 in L6 myotubes (western blot); type: cell-based, rat; conditions: 0.1–10 nM, 15 min
Description: (§1) For in vitro cell culture experiments, after serum starvation for 18 h, myotubes were treated with various concentrations of quercetin or isorhamnetin (0.1–10 nM) for 15 min; DMSO (final 0.1%) was used as a vehicle control. As positive controls, 100 nM insulin, 1 mM AICAR, 10 nM leptin, or 100 ng/mL IL-15 were used for insulin, AMPK, JAK2/STAT, or JAK3/STAT signalling pathways, respectively. Cells were treated with insulin or AICAR for 15 min, leptin for 60 min, or IL-15 for 24 h. Whole protein and plasma membrane fractions were prepared from myotubes, as previously described. For in vivo experiment, plasma membrane fraction and tissue lysate of soleus muscle were prepared.
(§2) Translocation of GLUT4 to the plasma membrane, as well as expression and phosphorylation levels of GLUT4-related regulators were estimated by western blot analysis. Briefly, equal amounts of proteins were separated by sodium dodecyl sulfate-polyacrylamide gel electrophoresis (SDS-PAGE). […] Specific immune complexes were developed using ImmunoStar® LD and detected with an ATTO Light-Capture II Western Blotting Detection System. Individual band density was calculated by ImageJ and normalized to the control.

L6 myotubes = assay: Enzymatic 2DG glucose uptake assay in L6 myotubes; type: cell-based, rat; conditions: 4 h; for glucose uptake, shape of concentration dependence: 0.01–10^4 nM
Description: In vitro cultured cell experiments were conducted according to a previously described protocol[6],[14]. Briefly, L6 myoblasts derived from rat skeletal muscle and of less than 40 passages were maintained in MEM supplemented with 10% foetal bovine serum (FBS) and antibiotics (100 U/ml penicillin and 100 μg/ml streptomycin) at 37 °C under a humidified atmosphere condition of 5% CO2 and 95% air. In each experiment, cells (2.2 × 10^4 cells/ml) were seeded into 96-well plates or 60-mm dishes for induction of differentiation into mature myotubes. After reaching confluence, cells were supplemented with differentiation medium containing 2% FBS and the same antibiotics for 7 days. Cells were used for each experiment after morphological analysis of differentiation status using phase-contrast microscopy. To explore the contribution of CaMKKβ or intracellular-free calcium ions in quercetin- and isorhamnetin-stimulated GLUT4 translocation, L6 cells were incubated in the presence or absence of 10 μM STO-609 and 25 μM […], respectively, for 30 min prior to treatment with either quercetin or isorhamnetin.
After serum starvation by incubating L6 myotubes in MEM with 0.2% BSA for 18 h, cells were treated with quercetin and isorhamnetin at the specified concentration (0.01 nM–10 μM) for 4 h in 0.2% BSA-containing medium. DMSO and insulin (100 nM) were used as a vehicle control and positive control, respectively. Glucose uptake was measured by an enzymatic 2DG uptake assay using myotubes on a 96-well plate as previously described.

IRS1 = assay: Phosphorylation of IRS1 in L6 myotubes (western blot); type: cell-based, rat; conditions: 0.1–10 nM, 15 min
Description: as §1, §2

[2] = 0.01 nM to 1 nM, compared with vehicle (DMSO)

| SMILES | concentration at 90 min ([1]; in vivo, 90 min after oral EMIQ 1000 mg/kg body weight) | phosphorylation of STAT1 (STAT1) | glucose uptake (L6 myotubes; [2]) | glucose uptake (L6 myotubes; 1 nM) | glucose uptake (L6 myotubes; 10 nM) | glucose uptake (L6 myotubes; 100 nM) | glucose uptake (L6 myotubes; 1 μM) | glucose uptake (L6 myotubes; 10 μM) | glucose uptake, shape of concentration dependence (L6 myotubes) | concentration at 90 min ([1]; plasma, oral, 90 min after oral EMIQ 10 mg/kg body weight) | concentration at 90 min ([1]; plasma, oral, 90 min after oral EMIQ 100 mg/kg body weight) | concentration at 90 min ([1]; plasma, oral, 90 min after oral EMIQ 1000 mg/kg body weight) | phosphorylation of IRS1 (IRS1) | glucose uptake (L6 myotubes; 0.1 nM) |
| --- | --- | --- | --- | --- | --- | --- | --- | --- | --- | --- | --- | --- | --- | --- |
| COc1cc(-c2oc3cc(O)cc(O)c3c(=O)c2O)ccc1O [isorhamnetin, 3′-O-methyl quercetin] | 131 ± 51.5 nM | but not STAT1 | increased glucose uptake in a dose-dependent manner | significant increase | decreased glucose uptake | decreased glucose uptake | significant increase | significant increase | biphasic increase in glucose uptake |  |  |  |  |  |
| O=c1c(O)c(-c2ccc(O)c(O)c2)oc2cc(O)cc(O)c12 [quercetin, 3,3′,4′,5,7-pentahydroxy flavone] |  |  | increased glucose uptake in a dose-dependent manner | significant increase | decreased glucose uptake | decreased glucose uptake | significant increase | significant increase | biphasic increase in glucose uptake | 4.95 ± 0.82 nM | 6.8 ± 2 nM | 138 ± 45.1 nM | dose-dependently promoted | significant increase |
